Reference: patent US8658604B2, “Template-fixed beta-hairpin peptidomimetics with protease inhibitory activity” (Polyphor Ltd, priority 2005, dated 2014)
Where two headings read alike, the source gives them in different places. Where a SMILES comes first, the peptide text is derived from it.

Key:
[1] = target: Coagulation Factor Xa, from uman plasma (Homo sapiens, UniProt P00742); assay: Enzymatic assay, coagulation factor Xa
[2] = target: Thrombin, from Human Plasma (Homo sapiens, UniProt P00734); assay: Enzymatic assay, thrombin
[3] = target: Chymotrypsin, from human pancreas (Homo sapiens, UniProt P17538); assay: Enzymatic assay, chymotrypsin
Sequence of Chymotrypsin, from human pancreas (P17538 19-263): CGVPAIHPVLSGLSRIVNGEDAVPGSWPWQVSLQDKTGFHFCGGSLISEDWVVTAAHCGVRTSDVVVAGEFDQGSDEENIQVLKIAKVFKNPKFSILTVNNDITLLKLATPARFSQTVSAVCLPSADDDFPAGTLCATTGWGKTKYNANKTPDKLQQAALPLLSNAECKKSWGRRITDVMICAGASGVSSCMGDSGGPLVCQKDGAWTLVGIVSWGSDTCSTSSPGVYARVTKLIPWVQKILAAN

[4] = target: Trypsin, from human pancreas (Homo sapiens, UniProt P07477); assay: Enzymatic assay, trypsin; details: at 100 μM
[5] = target: T1, Elastase from human neutrophils (Homo sapiens, UniProt P08246); assay: Enzymatic assay, elastase; details: for Elastase at 100 μM %: at 100 μM (stated in cell instead of IC50)
T1 sequence (P08246 30-267): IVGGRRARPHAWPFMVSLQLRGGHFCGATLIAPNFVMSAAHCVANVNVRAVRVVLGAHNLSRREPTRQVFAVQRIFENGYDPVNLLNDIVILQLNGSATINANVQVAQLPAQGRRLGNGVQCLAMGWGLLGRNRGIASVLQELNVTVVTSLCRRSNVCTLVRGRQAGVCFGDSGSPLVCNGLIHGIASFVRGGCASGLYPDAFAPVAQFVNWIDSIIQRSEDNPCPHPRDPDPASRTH

[6] = target: T2, Chymase, from human skin (Homo sapiens, UniProt P23946); assay: Enzymatic assay, chymase
T2 sequence (P23946 22-247): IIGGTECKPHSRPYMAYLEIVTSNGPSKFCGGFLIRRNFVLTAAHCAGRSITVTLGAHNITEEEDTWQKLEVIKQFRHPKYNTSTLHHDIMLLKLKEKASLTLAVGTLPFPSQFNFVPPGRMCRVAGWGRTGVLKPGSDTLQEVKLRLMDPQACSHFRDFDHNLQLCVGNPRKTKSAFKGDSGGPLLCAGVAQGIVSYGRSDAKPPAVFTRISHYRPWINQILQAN

[7] = target: T3, CathepsinG, from human neutrophils (Homo sapiens, UniProt P08311); assay: Enzymatic assay, cathepsin G; details: for Cathepsin G at 100 μM %: at 100 μM (stated in cell instead of IC50)
T3 sequence (P08311 21-244): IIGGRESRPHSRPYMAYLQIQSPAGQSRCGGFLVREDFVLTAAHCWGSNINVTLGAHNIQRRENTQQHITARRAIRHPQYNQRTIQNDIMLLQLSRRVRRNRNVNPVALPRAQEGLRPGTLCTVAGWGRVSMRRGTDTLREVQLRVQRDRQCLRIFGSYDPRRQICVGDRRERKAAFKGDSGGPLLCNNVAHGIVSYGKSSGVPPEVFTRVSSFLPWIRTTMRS

[8] = system: Tryptase, from human lung; assay: Enzymatic assay, tryptase; details: at 100 μM
[9] = target: Urokinase from human urine (Homo sapiens, UniProt P00749); assay: Enzymatic assay, urokinase

Sequence of Coagulation Factor Xa, from uman plasma (P00742 235-488 limits assumed): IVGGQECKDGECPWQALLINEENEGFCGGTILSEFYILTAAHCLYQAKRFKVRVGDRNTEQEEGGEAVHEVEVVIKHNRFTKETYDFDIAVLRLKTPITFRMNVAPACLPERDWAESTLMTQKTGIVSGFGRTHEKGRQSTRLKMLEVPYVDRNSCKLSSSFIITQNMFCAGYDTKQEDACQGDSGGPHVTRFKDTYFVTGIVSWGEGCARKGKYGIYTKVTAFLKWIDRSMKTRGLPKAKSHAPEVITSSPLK
Sequence of Coagulation Factor Xa, from uman plasma (P00742 41-179 limits assumed): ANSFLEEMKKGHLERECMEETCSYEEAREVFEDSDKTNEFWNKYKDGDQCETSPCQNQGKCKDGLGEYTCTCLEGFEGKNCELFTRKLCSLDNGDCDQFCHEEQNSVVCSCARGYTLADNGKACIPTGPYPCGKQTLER

SMILES	FXa at 100 μM % [1] [%]	Thrombin at 100 μM % [2] [%]	IC50 [3] [µM]	Trypsin at 100 μM % [4] [%]	IC50 ([5]; Elastase IC50) [µM]	Chymase at 100 μM % [6] [%]	Cathepsin G at 100 μM % [7] [at 100%]	Tryptase at 100 μM % [8] [%]	IC50 ([7]; read-out: Cathepsin G IC50) [µM]	Urokinase at 100 μM % [9] [%]	Chymotrypsin at 100 μM % [3] [%]	IC50 ([5]; read-out: Elastase IC50) [µM]	IC50 ([7]; Cathepsin G IC50) [µM]	Elastase at 100 μM % [5] [at %]
CCCC[C@@H]1NC(=O)[C@@H]2CCCN2C(=O)[C@H]2CCCN2C(=O)[C@H](Cc2ccc(O)cc2)NC(=O)[C@@H]2CSSC[C@H](NC1=O)C(=O)N[C@@H]([C@@H](C)O)C(=O)N[C@@H](C)C(=O)N[C@@H](CO)C(=O)N[C@@H](CC(C)(C)C)C(=O)N1CCC[C@H]1C(=O)N1CCC[C@H]1C(=O)N[C@@H](CCC(N)=O)C(=O)N2 [Ex. 85] (HELM PEPTIDE1{[Nle].C.T.A.S.[CC(C)(C)C[C@H](N[*:1])C(=O)[*:2]].P.P.Q.C.Y.[dP].P}$PEPTIDE1,PEPTIDE1,2:R3-10:R3|PEPTIDE1,PEPTIDE1,1:R1-13:R2$$$V2.0)	25.6	12.6	> 20	0	0.028	–	–	–	–	–	–	–	–	–
CCCC[C@@H]1NC(=O)[C@@H]2CCCN2C(=O)[C@H]2CCCN2C(=O)[C@H](Cc2ccc(O)cc2)NC(=O)[C@@H]2CSSC[C@H](NC1=O)C(=O)N[C@@H](C)C(=O)N[C@@H](C)C(=O)N[C@@H](CO)C(=O)N[C@@H]([C@@H](C)CC)C(=O)N1CCC[C@H]1C(=O)N1CCC[C@H]1C(=O)N[C@@H](CCC(N)=O)C(=O)N2 [Ex. 86] (HELM PEPTIDE1{[Nle].C.A.A.S.I.P.P.Q.C.Y.[dP].P}$PEPTIDE1,PEPTIDE1,2:R3-10:R3|PEPTIDE1,PEPTIDE1,1:R1-13:R2$$$V2.0)	24.8	10.7	> 100	0	0.026	0	47	0	–	–	–	–	–	–
C[C@@H](O)[C@@H]1NC(=O)[C@@H]2CSSC[C@H](NC(=O)[C@H](CC3CCCCC3)NC(=O)[C@@H]3CCCN3C(=O)[C@@H]3CCCN3C(=O)[C@H](CC(=O)O)NC(=O)[C@H](CO)NC(=O)[C@H](CCCCN)NC1=O)C(=O)N[C@@H](CO)C(=O)N1CCC[C@@H]1C(=O)N1CCC[C@H]1C(=O)N[C@@H](Cc1ccccc1)C(=O)N2 [compound 54] (HELM PEPTIDE1{F.C.T.K.S.D.P.P.[Cha].C.S.[dP].P}$PEPTIDE1,PEPTIDE1,2:R3-10:R3|PEPTIDE1,PEPTIDE1,1:R1-13:R2$$$V2.0)	–	–	–	90	–	12.9	–	–	0.066	3.2	18	> 100	–	–
CC[C@H](C)[C@@H]1NC(=O)[C@@H]2CCCN2C(=O)[C@@H]2CCCN2C(=O)[C@H](CC(=O)O)NC(=O)[C@H](CO)NC(=O)[C@H](CCCCN)NC(=O)[C@H]([C@@H](C)O)NC(=O)[C@@H]2CSSC[C@H](NC1=O)C(=O)N[C@@H](CO)C(=O)N[C@H](C)C(=O)N1CCC[C@H]1C(=O)N[C@@H](Cc1ccccc1)C(=O)N2 [Ex. 49] (HELM PEPTIDE1{F.C.T.K.S.D.P.P.I.C.S.[dA].P}$PEPTIDE1,PEPTIDE1,2:R3-10:R3|PEPTIDE1,PEPTIDE1,1:R1-13:R2$$$V2.0)	–	7.9	–	96	> 10	0	–	30.5	–	6.2	0	–	0.082	–
CCCC[C@@H]1NC(=O)[C@H](CCC(N)=O)NC(=O)[C@H]2CCCN2C(=O)[C@H](Cc2ccc(O)cc2)NC(=O)[C@@H]2CSSC[C@H](NC1=O)C(=O)N[C@@H]([C@@H](C)O)C(=O)N[C@@H](C)C(=O)N[C@@H](CO)C(=O)N[C@@H]([C@@H](C)CC)C(=O)N1CCC[C@H]1C(=O)N1CCC[C@H]1C(=O)N[C@@H](CCC(N)=O)C(=O)N2 [Ex. 123] (HELM PEPTIDE1{[Nle].C.T.A.S.I.P.P.Q.C.Y.[dP].Q}$PEPTIDE1,PEPTIDE1,2:R3-10:R3|PEPTIDE1,PEPTIDE1,1:R1-13:R2$$$V2.0)	0	2.7	15	7.9	0.014	0	–	–	–	7.6	–	–	35.2	–
CCCC[C@@H]1NC(=O)[C@H](CCCNC(=N)N)NC(=O)[C@@H]2CCCN2C(=O)[C@H]2CCCN2C(=O)[C@H](Cc2ccccc2)NC(=O)[C@H](CCCC)NC(=O)[C@H]([C@@H](C)CC)NC(=O)[C@@H]2CCCN2C(=O)[C@@H]2CCCN2C(=O)[C@H](CC(=O)O)NC(=O)[C@H](CO)NC(=O)[C@H](CCCCN)NC(=O)[C@H]([C@@H](C)O)NC1=O [Ex. 8] (HELM PEPTIDE1{R.[Nle].T.K.S.D.P.P.I.[Nle].F.[dP].P}$PEPTIDE1,PEPTIDE1,1:R1-13:R2$$$V2.0)	–	–	–	74.2	–	71.7	–	–	–	–	5.6	–	0.126	0.8
CC[C@H](C)[C@@H]1NC(=O)[C@@H]2CCCN2C(=O)[C@@H]2CCCN2C(=O)[C@H](CC(=O)O)NC(=O)[C@H](CO)NC(=O)[C@H](CCCCN)NC(=O)[C@H]([C@@H](C)O)NC(=O)[C@@H]2CSSC[C@H](NC1=O)C(=O)N[C@@H](Cc1ccc(O)cc1)C(=O)N1CCC[C@@H]1C(=O)N1CCC[C@H]1C(=O)N[C@@H](CCc1ccccc1)C(=O)N2 [Ex. 30] (HELM PEPTIDE1{[O=C([C@H](CCc1ccccc1)N[*:1])[*:2]].C.T.K.S.D.P.P.I.C.Y.[dP].P}$PEPTIDE1,PEPTIDE1,2:R3-10:R3|PEPTIDE1,PEPTIDE1,1:R1-13:R2$$$V2.0)	3	2	–	98	49.9	0	–	–	–	9	49	–	0.039	–
CC[C@H](C)[C@@H]1NC(=O)[C@@H]2CCCN2C(=O)[C@@H]2CCCN2C(=O)[C@H](CC(=O)O)NC(=O)[C@H](CO)NC(=O)[C@H](CCCCN)NC(=O)[C@H]([C@@H](C)O)NC(=O)[C@@H]2CSSC[C@H](NC1=O)C(=O)N[C@@H](CO)C(=O)N1CCC[C@@H]1C(=O)N1CCC[C@H]1C(=O)N[C@@H](C1CCCCC1)C(=O)N2 [Ex. 11] (HELM PEPTIDE1{[O=C([C@@H](N[*:1])C1CCCCC1)[*:2]].C.T.K.S.D.P.P.I.C.S.[dP].P}$PEPTIDE1,PEPTIDE1,2:R3-10:R3|PEPTIDE1,PEPTIDE1,1:R1-13:R2$$$V2.0)	–	–	–	6.5	–	12.1	–	–	–	–	73.6	–	0.095	19
CCCC[C@@H]1NC(=O)[C@H](CCC(=O)O)NC(=O)[C@@H](CCCCN)NC(=O)[C@H](Cc2ccc(O)cc2)NC(=O)[C@@H]2CSSC[C@H](NC1=O)C(=O)N[C@@H]([C@@H](C)O)C(=O)N[C@@H](C)C(=O)N[C@@H](CO)C(=O)N[C@@H]([C@@H](C)CC)C(=O)N1CCC[C@H]1C(=O)N1CCC[C@H]1C(=O)N[C@@H](CCC(N)=O)C(=O)N2 [Ex. 127] (HELM PEPTIDE1{[Nle].C.T.A.S.I.P.P.Q.C.Y.[dK].E}$PEPTIDE1,PEPTIDE1,2:R3-10:R3|PEPTIDE1,PEPTIDE1,1:R1-13:R2$$$V2.0)	13.3	3.7	–	0	0.029	1.9	64	0	–	–	47.2	–	–	–
